Legend:
Type in all cases: in vivo, rat
[1] = test system: ovariectomized female Wistar rats; assay: Antiosteoporotic activity in ovariectomized rats: body weight and uterine weight
Method: Each of the animal groups for experiments included comprised 10 rats. Ovaries were removed from female Wistar rats (age: 8 months, weight: 260-330 g). ITX, suspended in 1% water solution of carboxymethl cellulose sodium salt, was orally administered to rats of one group in a dose of 50 mg/kg (weight of rat) and to rats of another group in a dose of 100 mg/kg (weight of rat) 6 times per week after 2 weeks of the removal.
An OVX (ovariectomized) group was prepared as negative control. Furthermore, another group was sham-operated as a Sham group. The OVX group and the Sham group were only fed, with no compound or drug given.
Furthermore, a tibia, a femur, and a uterus were removed from every rat and then weighted.

[2] = test system: ovariectomized female Wistar rats, proximal tibia bone; assay: Antiosteoporotic activity in ovariectomized rats: pQCT of proximal tibia (BMC, BMD, cortical geometry, bone strength indices); conditions: for Cancellous bone BMC / Cancellous bone BMD / Cortical bone BMC / Cortical bone BMD / Cortical bone thickness / Edno. C. (endosteal circumference) / Peri. C. (periosteal circumference) / Total bone BMC / Total bone BMD / Cortical bone thickness as % of that of the Sham group / Bone strength index PSSI / Bone strength index XSSI / Bone strength index YSSI: OVX rats; for Cancellous bone BMC / Cancellous bone BMD / Cortical bone BMC / Cortical bone BMD / Cortical bone thickness / Edno. C. (endosteal circumference) / Peri. C. (periosteal circumference) / Total bone BMC / Total bone BMD / Bone strength index PSSI / Bone strength index XSSI / Bone strength index YSSI: 6 weeks, 1 mm under growth plate
Method: Antiosteoporotic Activity of ITX was Assessed by Using Rats. Each of the animal groups for experiments included comprised 10 rats. Ovaries were removed from female Wistar rats (age: 8 months, weight: 260-330 g). ITX, suspended in 1% water solution of carboxymethl cellulose sodium salt, was orally administered to rats of one group in a dose of 50 mg/kg (weight of rat) and to rats of another group in a dose of 100 mg/kg (weight of rat) 6 times per week after 2 weeks of the removal. […] An OVX (ovariectomized) group was prepared as negative control. Furthermore, another group was sham-operated as a Sham group. The OVX group and the Sham group were only fed, with no compound or drug given. Tibial characteristics of the rats, which were anesthetized in advance, were measured by means of peripheral quantitative computed tomography (pQCT) 6 weeks after the initiation of the administration (i.e., 8 weeks after the removal of the ovaries). In the measurement, the left tibiae were scanned with a pQCT system XCT Research M (manufactured by Stratec Medizintechnik GmbH, Germany). Voxel size was set to 0.08 mm, slice thickness was set to 0.5 mm, and cortical BMD threshold was set to 464 mg/cm^3. Furthermore, peel mode was set to 20 to divide total bone into cortical bone or cancerous bone. A growth plate was identified after preliminary scanning (scout scan), and then a reference position was identified. Next, transverse image sets of four cross-sectional slices were scanned at a region of 1 to 5 mm under the growth plate. Cortical BMC and BMD and cancellous BMC and BMD, thickness of cortical bone, and periosteal circumference and endosteal circumference of cortical bone were measured at a separation mode of 3 and a contour mode of 2. Three indices of bone strength (X-, Y-, and Polar-axes) were also measured, and the data obtained were processed by XCT Research Series Manual Software Version 5.4, in which case the standard cortical BMD was set to 1,200 mg/cm^3. […] The figures in the total bone columns show the values of the whole bone obtained by measuring cancellous bone and cortical bone together. […] The presentation of t-test results applies to Table 4 as well. In the experiment, three bone strength indexes were measured: PSSI (polar-axis strength index), XSSI (X-axis strength index), and YSSI (Y-axis strength index).

[3] = test system: ovariectomized female Wistar rats, tibiae and femora; assay: Antiosteoporotic activity in ovariectomized rats: weight and length of tibiae and femora; conditions: for Femur Length / Femur Weight / Tibia Length / Tibia Weight: OVX rats, mean ± SD
Method: Each of the animal groups for experiments included comprised 10 rats. Ovaries were removed from female Wistar rats (age: 8 months, weight: 260-330 g). ITX, suspended in 1% water solution of carboxymethl cellulose sodium salt, was orally administered to rats of one group in a dose of 50 mg/kg (weight of rat) and to rats of another group in a dose of 100 mg/kg (weight of rat) 6 times per week after 2 weeks of the removal. […] An OVX (ovariectomized) group was prepared as negative control. Furthermore, another group was sham-operated as a Sham group. The OVX group and the Sham group were only fed, with no compound or drug given. Furthermore, a tibia, a femur, and a uterus were removed from every rat and then weighted. […] In the table, ITX 100 is a group of the rats which ITX was given to in a dose of 100 mg/kg, and ITX 50 is a group of the rats which ITX was given to in a dose of 50 mg/kg. E2 is a group of the rats which E2 was given to. The figures in each column of the table show averages and standard deviations of the measured values. The presentation of the figures applies to Table 3 and Table 4 as well.

[4] = E2 0.1 mg/kg into abdominal cavity
[5] = ITX 50 mg/kg oral, 6 times per week
[6] = ITX 100 mg/kg oral, 6 times per week

C[C@]12CC[C@@H]3c4ccc(O)cc4CC[C@H]3[C@@H]1CC[C@@H]2O [E2, 17β-estradiol, reference compound]
Body weight at the end compared to the OVX group (in words) ([1]; E2 0.1 mg/kg): inhibition of increase
Body weight at the end ([1]; OVX rats, E2 0.1 mg/kg into abdominal cavity, end of the experiment): 299 ± 33 g
Decrease in uterine weight compared to the Sham group ([1]; OVX rats, E2 0.1 mg/kg, end of the experiment): 48.5%
BMC and BMD (total, cancellous, cortical) compared to the OVX group (in words) ([2]; E2 0.1 mg/kg): inhibition of decrease in all but except total BMD and cancellous BMC
Endosteal circumference compared to the OVX group (in words) ([2]; E2 0.1 mg/kg): inhibition of increase
Increase in XSSI compared to the OVX group ([2]; E2 0.1 mg/kg): 15.3%
Increase in YSSI compared to the OVX group ([2]; E2 0.1 mg/kg): 23.5%
Increase in cortical bone thickness compared to the OVX group ([2]; E2 0.1 mg/kg): 9.8%
Periosteal circumference compared to the OVX group (in words) ([2]; E2 0.1 mg/kg): a decrease
Cancellous bone BMC [2, 4]: 0.96 ± 0.17 mg/mm
Cancellous bone BMD [2, 4]: 244 ± 53 mg/mL
Cortical bone BMC [2, 4]: 7.58 ± 0.48 mg/mm
Cortical bone BMD [2, 4]: 1143 ± 22 mg/mL
Cortical bone thickness [2, 4]: 0.56 ± 0.03 mm
Edno. C. (endosteal circumference) [2, 4]: 9.79 ± 0.57 mm
Peri. C. (periosteal circumference) [2, 4]: 13.4 ± 0.6 mm
Total bone BMC [2, 4]: 10.5 ± 0.7 mg/mm
Total bone BMD [2, 4]: 723 ± 38 mg/mL
Femur Length [3, 4]: 3.59 ± 0.15 cm
Femur Weight [3, 4]: 861 ± 65 mg
Tibia Length [3, 4]: 3.76 ± 0.14 cm
Tibia Weight [3, 4]: 547 ± 94 mg

COc1cc2c(cc1O)[C@H](c1ccc(O)c(O)c1)[C@@H](CO)[C@H](CO)C2 [ITX, isotaxiresinol]
Body weight at the end compared to the OVX group (in words) ([1]; ITX 50 mg/kg oral): inhibition of increase
Body weight at the end compared to the OVX group (in words) ([1]; ITX 100 mg/kg oral): inhibition of increase
Body weight at the end ([1]; OVX rats, ITX 50 mg/kg oral, end of the experiment): 318 ± 18 g
Body weight at the end ([1]; OVX rats, ITX 100 mg/kg oral, end of the experiment): 301 ± 15 g
Cortical BMC compared to the OVX group (in words) ([2]; ITX 50 mg/kg oral): inhibition of decrease
Cortical BMD compared to the OVX group (in words) ([2]; ITX 50 mg/kg oral): inhibition of decrease
Endosteal circumference compared to the OVX group (in words) ([2]; ITX 50 mg/kg oral): inhibition of increase
Increase in PSSI compared to the OVX group ([2]; ITX 50 mg/kg oral): 16.2%
Increase in XSSI compared to the OVX group ([2]; ITX 50 mg/kg oral): 14.2%
Increase in YSSI compared to the OVX group ([2]; ITX 50 mg/kg oral): 24.0%
Periosteal circumference compared to the OVX group (in words) ([2]; ITX 50 mg/kg oral): the same level or an increase
Total BMD compared to the OVX group (in words) ([2]; ITX 50 mg/kg oral): inhibition of decrease
Cancellous BMC compared to the OVX group (in words) ([2]; ITX 100 mg/kg oral): inhibition of decrease
Cortical BMD compared to the OVX group (in words) ([2]; ITX 100 mg/kg oral): inhibition of decrease
Endosteal circumference compared to the OVX group (in words) ([2]; ITX 100 mg/kg oral): inhibition of increase
Periosteal circumference compared to the OVX group (in words) ([2]; ITX 100 mg/kg oral): the same level or an increase
Cortical bone thickness as % of that of the Sham group ([2]; ITX 50 mg/kg oral): 98.3%
Bone strength index PSSI ([2]; ITX 50 mg/kg oral): 10.35 ± 0.89
Bone strength index XSSI ([2]; ITX 50 mg/kg oral): 5.15 ± 0.62
Bone strength index YSSI ([2]; ITX 50 mg/kg oral): 6.45 ± 0.67
Cancellous bone BMC ([2]; ITX 50 mg/kg oral): 0.99 ± 0.12 mg/mm
Cancellous bone BMD ([2]; ITX 50 mg/kg oral): 215 ± 25 mg/mL
Cortical bone BMC ([2]; ITX 50 mg/kg oral): 7.72 ± 0.52 mg/mm
Cortical bone BMD ([2]; ITX 50 mg/kg oral): 1137 ± 14 mg/mL
Cortical bone thickness ([2]; ITX 50 mg/kg oral): 0.58 ± 0.03 mm
Edno. C. (endosteal circumference) ([2]; ITX 50 mg/kg oral): 9.92 ± 0.54 mm
Peri. C. (periosteal circumference) ([2]; ITX 50 mg/kg oral): 13.7 ± 0.5 mm
Total bone BMC ([2]; ITX 50 mg/kg oral): 10.4 ± 0.8 mg/mm
Total bone BMD ([2]; ITX 50 mg/kg oral): 707 ± 14 mg/mL
Cortical bone thickness as % of that of the Sham group ([2]; ITX 100 mg/kg oral): 93.2%
Bone strength index PSSI ([2]; ITX 100 mg/kg oral): 9.34 ± 0.70
Bone strength index XSSI ([2]; ITX 100 mg/kg oral): 4.77 ± 0.68
Bone strength index YSSI ([2]; ITX 100 mg/kg oral): 5.71 ± 0.41
Cancellous bone BMC ([2]; ITX 100 mg/kg oral): 1.04 ± 0.15 mg/mm
Cancellous bone BMD ([2]; ITX 100 mg/kg oral): 207 ± 28 mg/mL
Cortical bone BMC ([2]; ITX 100 mg/kg oral): 7.40 ± 0.29 mg/mm
Cortical bone BMD ([2]; ITX 100 mg/kg oral): 1138 ± 17 mg/mL
Cortical bone thickness ([2]; ITX 100 mg/kg oral): 0.55 ± 0.03 mm
Edno. C. (endosteal circumference) ([2]; ITX 100 mg/kg oral): 9.97 ± 0.37 mm
Peri. C. (periosteal circumference) ([2]; ITX 100 mg/kg oral): 13.6 ± 0.4 mm
Total bone BMC ([2]; ITX 100 mg/kg oral): 9.82 ± 0.37 mg/mm
Total bone BMD ([2]; ITX 100 mg/kg oral): 683 ± 21 mg/mL
Tibia weight compared with the OVX group (in words) ([3]; ITX 50 mg/kg oral): no significant difference
Femur weight compared with the OVX group (in words) ([3]; ITX 100 mg/kg oral): no significant difference
Femur Length [3, 5]: 3.64 ± 0.05 cm
Femur Weight [3, 5]: 862 ± 64 mg
Tibia Length [3, 5]: 3.98 ± 0.14 cm
Tibia Weight [3, 5]: 588 ± 52 mg
Femur Length [3, 6]: 3.59 ± 0.22 cm
Femur Weight [3, 6]: 897 ± 83 mg
Tibia Length [3, 6]: 3.97 ± 0.24 cm
Tibia Weight [3, 6]: 562 ± 95 mg
